{"source": "paper PMC10807816", "about": "“Molecular mechanisms and evolutionary robustness of a color switch in proteorhodopsins” (Science Advances, 2024)", "target": "T1, GPR (green proteorhodopsin) (uncultured marine gamma proteobacterium EBAC31A08, UniProt Q9F7P4, L105Q)", "T1 construct": "pET27b(+) NdeI/XhoI, C-terminal HSV tag and His6 tag kept; E. coli C43; Ni-NTA, DDM, DMPC/DMPA liposomes", "T1 sequence (Q9F7P4 18-249 L105Q)": "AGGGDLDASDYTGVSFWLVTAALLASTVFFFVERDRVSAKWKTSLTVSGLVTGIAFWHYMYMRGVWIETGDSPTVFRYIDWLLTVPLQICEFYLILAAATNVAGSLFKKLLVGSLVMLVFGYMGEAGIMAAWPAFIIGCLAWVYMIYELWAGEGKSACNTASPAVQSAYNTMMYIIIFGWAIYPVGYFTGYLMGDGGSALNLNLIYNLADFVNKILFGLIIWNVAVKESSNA", "assay": "solid-state NMR (DNP, CSA, 2D […]/1H/[…]) and UV-Vis", "type": "binding", "settings": "covalent; protonated Schiff base to Lys231; pH 9.0; labelled compound; called BPR"}
{"smiles": "CC1=C(/C=C/C(C)=C/C=C/C(C)=C/C=O)C(C)(C)CCC1", "note": "[all-trans retinal]", "values": [{"measurement": "solid-state NMR (DNP, CSA, 2D 13C/1H/15N) and UV-Vis", "result": "Notable chemical shift changes between GPR and BPR have been observed"}]}
